The values that follow are results of earlier work, collected in patent US20110311589A1 (priority 2008, published 2011).

This data set has as its system helminthiasis. Conditions: in vivo.

With `c1ccc([C@H]2CN3CCSC3=N2)cc1` [Levamisole], the “Dosage level at which particularly effective as anthelmintic” value is on record as “approximately 7.5 mg per kg of animal body weight”.
